Results taken from PMC9070039, “Synthesis and evaluation of antimicrobial activity, cytotoxic and pro-apoptotic effects of novel spiro-4H-pyran derivatives” (RSC Advances, 2019).
Converted amounts (≈) assume the structure as drawn. One block for each compound: values may come before it.

What was measured:
S. aureus [1] = experiment: Disk diffusion antibacterial test; format: cell-based, Staphylococcus aureus; design: key to Inhibition zone (mm) S. aureus: —: inactive at concentration 50 mM; settings: for Sensitivity of S. aureus to compound: there called agar dilution method; for Inhibition zone (mm) S. aureus: disc diffusion test, concentration 50 mM
Method: (§1) Antibacterial effects of spiro[indeno[2,1-c]pyridazine-9,4′-pyran]-3′,4-dicarbonitrile derivatives 5a–j were evaluated in vitro by using disk diffusion method against Gram-positive (S. aureus) and Gram negative (E. coli). The diameter of inhibition zone correlates to the sensitivity of a bacterium to an antibacterial agent. […] E. coli was resistant against all compounds tested (Table 2). Tetracycline and DMSO were used as positive control and negative control respectively. Next, the active compounds were analysed using MIC assay to determine the lowest concentration for inhibition. […] It seems due to the difference in structure of bacterial cell wall (i.e., the presence of outer membrane with lipid, lipopolysaccharide, and lipoprotein content in Gram negative bacteria), E. coli was resistant against the related synthetic compounds.
(§2) Antibacterial activity of the prepared synthetic compounds against the Gram-negative bacteria (E. coli; ATCC: 15922) and the Gram-positive bacteria (S. aureus; PTCC: 1112, International no. ATCC6538P) were examined by disk diffusion assay. Bacterial cultures were obtained from Persian Type Culture Collection, Tehran, Iran (PTCC). Isolated pure colonies from fresh grown bacteria were transferred from the plates into sterile normal saline solution and it was vortexed to form bacterial homogenous suspensions. The turbidity was then adjusted to 0.5 McFarland standard units, and the suspensions were poured over Mueller–Hinton agar (MHA) plates. Sterile filter paper disks were placed over these plates. The sterile disks were impregnated with the tested compounds. Positive control (tetracycline) and negative control ([…]) were used. To determine MIC, the concentrations of tested substance were prepared within the range from 30–5 mM. Incubate in incubator at 37 °C in 24 h for bacteria (Table 2).

E. coli = experiment: Disk diffusion antibacterial test; format: cell-based, Escherichia coli; design: key: —: inactive at concentration 50 mM; settings: disc diffusion test, concentration 50 mM
Method: as §1, §2

A549 cells = experiment: MTT cytotoxicity assay; format: cell-based; settings: Homo sapiens, 48 h
Method: (§3) At first, in order to compare anti-cancer properties, the synthesized compounds 5a–j were evaluated against A549 cells, MCF-7 cells, A375 cells, PC3 cells, LNCaP cells and HDF cells lines using the MTT colorimetric assay. The activity is expressed as 50% growth inhibitory concentration (IC50) values at 48 h. We used DMSO (1%) as negative control and Etoposide as positive control.
(§4) Human non-small-cell lung cancer A549 cells, human breast cancer MCF-7 cells, human malignant melanoma cells (A375), human prostate cancer cells (PC3 cells, LNCaP cells) and normal cells HDF (human dermal fibroblast) were received from Pasture Institute, Tehran, Iran. MCF-7 cells were grown in RPMI 1640 medium, A549 cells, A375 cells, PC3 cells, LNCaP cells and HDF cells were grown in DMEM medium. All media contain 10% fetal bovine serum (FBS), penicillin G, streptomycin 100 μg mL^−1 and 1% L-glutamine. The cells were cultured and incubated under humidified 5% CO2 atmosphere at 37 °C.
(§5) The effect of compounds treatment on the viability of cancer cell lines was measured by (3-(4,5-dimethylthiazol-2-yl)-2,5-diphenyl tetrazolium bromide or MTT) assay (MTT assay kit, Bio IDEA, CatNo: BI1017, Iran) based on the ability of live cells to cleave the tetrazolium ring to a molecule that absorb at […] as per the manufacturer's instructions.[33] Etoposide (was kindly provided by Dr A. Foroumadi, Tehran medical Science University, Iran) and dimethyl sulfoxide (or DMSO) was used as positive and negative controls, respectively.[34] Briefly, cells were plated in 96-well culture plates (5 × 10^3 cells per well). After 24 h incubation, the cells were treated with different concentrations of the compounds. After 48 h at 37 °C, the medium was removed and 100 μL of MTT reagent (1 mg mL^−1) was added to each well, and cells were further incubated at 37 °C for 4 h. The MTT solution was removed, 50 μL of DMSO was added to each well to dissolve formazan crystals, and the plates were gently shaken for 10 minutes, followed by reading with an ELISA plate reader (BiotekELx 800, USA). The 50% inhibition concentration (IC50) was defined as the concentration that inhibited cell proliferation by 50% when compared to DMSO treated cells (as negative control).

LNCaP cells = experiment: MTT cytotoxicity assay; format: cell-based; settings: Homo sapiens, 48 h
Method: as §3, §4, §5

PC3 cells = experiment: MTT cytotoxicity assay; format: cell-based; settings: Homo sapiens, PC-3, 48 h
Method: as §3, §4, §5

A375 cells = experiment: MTT cytotoxicity assay; format: cell-based; settings: Homo sapiens, A-375, 48 h
Method: as §3, §4, §5

HDF cells = experiment: MTT cytotoxicity assay; format: cell-based; settings: 48 h, normal cells (human dermal fibroblast)
Method: as §3, §4, §5

MCF-7 cells = experiment: MTT cytotoxicity assay; format: cell-based; settings: Homo sapiens, MCF7, 48 h
Method: as §3, §4, §5

S. aureus [2] = experiment: MIC determination; format: cell-based; settings: Staphylococcus aureus; read-out: MICs (mM) S. aureus
Method: as §1, §2

Structure (SMILES): CC1(C)CC(=O)C2=C(C1)OC(N)=C(C#N)C21c2ccccc2-c2c1n[nH]c(=O)c2C#N (centres unmarked) [5d, 2-Amino-7,7-dimethyl-3′,5-dioxo-2′,3′,5,6,7,8-hexahydrospiro[chromene-4,9′-indeno[2,1-c]pyridazine]-3,4′-dicarbonitrile]
Inhibition zone (mm) S. aureus (S. aureus [1]): —
Inhibition zone (mm) E. coli (E. coli): —
IC50 (A549 cells): > 100 µM
IC50 (LNCaP cells): > 100 µM
IC50 (PC3 cells): > 100 µM
IC50 (A375 cells): > 100 µM
IC50 (HDF cells): > 100 µM
IC50 (MCF-7 cells): > 100 µM
melting point: 315 to 318 °C

Structure (SMILES): Cc1nn(-c2cccc(Cl)c2)c2c1C1(C(C#N)=C(N)O2)c2ccccc2-c2c1n[nH]c(=O)c2C#N (centres unmarked) [5g, 6′-Amino-1′-(3-chlorophenyl)-3′-methyl-3-oxo-2,3-dihydro-1′H-spiro[indeno[2,1-c]pyridazine-9,4′-pyrano[2,3-c]pyrazole]-4,5′-dicarbonitrile]
Sensitivity of S. aureus to compound (S. aureus [1]): sensitive
Inhibition zone (mm) E. coli (E. coli): —
IC50 (A549 cells): > 100 µM
IC50 (LNCaP cells): > 100 µM
IC50 (PC3 cells): > 100 µM
IC50 (A375 cells): > 100 µM
IC50 (HDF cells): > 100 µM
IC50 (MCF-7 cells): > 100 µM
MIC (S. aureus [2]): 5 mM (≈ 2400 µg/mL)

Structure (SMILES): COC(=O)c1nn(-c2ccccc2)c2c1C1(C(C#N)=C(N)O2)c2ccccc2-c2c1n[nH]c(=O)c2C#N (centres unmarked) [5h, Methyl 6′-amino-4,5′-dicyano-3-oxo-1′-phenyl-2,3-dihydro-1′H-spiro[indeno[2,1-c]pyridazine-9,4′-pyrano[2,3-c]pyrazole]-3′-carboxylate]
Inhibition zone (mm) S. aureus (S. aureus [1]): —
Inhibition zone (mm) E. coli (E. coli): —
IC50 (A549 cells): > 100 µM
IC50 (LNCaP cells): > 100 µM
IC50 (PC3 cells): > 100 µM
IC50 (A375 cells): > 100 µM
IC50 (HDF cells): > 100 µM
IC50 (MCF-7 cells): > 100 µM

Structure (SMILES): N#CC1=C(N)Oc2c(c(=O)oc3ccccc23)C12c1ccccc1-c1c2n[nH]c(=O)c1C#N (centres unmarked) [5i, 2′-Amino-3,5′-dioxo-2,3-dihydro-5′H-spiro[indeno[2,1-c]pyridazine-9,4′-pyrano[3,2-c]chromene]-3′,4-dicarbonitrile]
Sensitivity of S. aureus to compound (S. aureus [1]): sensitive
Inhibition zone (mm) E. coli (E. coli): —
IC50 (A549 cells): > 100 µM
IC50 (LNCaP cells): > 100 µM
IC50 (PC3 cells): > 100 µM
IC50 (A375 cells): > 100 µM
IC50 (HDF cells): > 100 µM
IC50 (MCF-7 cells): > 100 µM
melting point: 308 to 310 °C
MIC (S. aureus [2]): 5 mM (≈ 2170 µg/mL)

Structure (SMILES): N#CC1=C(N)OC2=C(C(=O)c3ccccc32)C12c1ccccc1-c1c2n[nH]c(=O)c1C#N (centres unmarked) [5j, 2-Amino-3′,5-dioxo-2′,3′-dihydro-5H-spiro[indeno[1,2-b]pyran-4,9′-indeno[2,1-c]pyridazine]-3,4′-dicarbonitrile]
Inhibition zone (mm) S. aureus (S. aureus [1]): —
Inhibition zone (mm) E. coli (E. coli): —
IC50 (A549 cells): > 100 µM
IC50 (LNCaP cells): > 100 µM
IC50 (PC3 cells): > 100 µM
IC50 (A375 cells): > 100 µM
IC50 (HDF cells): > 100 µM
IC50 (MCF-7 cells): > 100 µM
melting point: 298 to 300 °C

Structure (SMILES): COc1cc([C@@H]2c3cc4c(cc3[C@@H](O[C@@H]3O[C@@H]5CO[C@@H](C)O[C@H]5[C@H](O)[C@H]3O)[C@H]3COC(=O)[C@H]23)OCO4)cc(OC)c1O [Etoposide, reference compound]
IC50 (A549 cells): 60 ± 0.015 µM
IC50 (LNCaP cells): 90 ± 0.031 µM
IC50 (PC3 cells): 40 ± 0.062 µM
IC50 (A375 cells): 25.31 ± 0.018 µM
IC50 (HDF cells): > 100 µM
IC50 (MCF-7 cells): 30 ± 0.011 µM

Further lines, with some results ahead:

melting point: 322 to 324 °C
MIC (S. aureus [2]): 5 mM (≈ 2000 µg/mL)
Structure (SMILES): N#CC1=C(N)Oc2[nH]c(=O)[nH]c(=O)c2C12c1ccccc1-c1c2n[nH]c(=O)c1C#N (centres unmarked) [5b, 7′-Amino-2′,3,4′-trioxo-1′,2,2′,3,3′,4′-hexahydrospiro[indeno[2,1-c]pyridazine-9,5′-pyrano[2,3-d]pyrimidine]-4,6′-dicarbonitrile]
Sensitivity of S. aureus to compound (S. aureus [1]): sensitive
Inhibition zone (mm) E. coli (E. coli): —
IC50 (A549 cells): > 100 µM
IC50 (LNCaP cells): > 100 µM
IC50 (PC3 cells): > 100 µM
IC50 (A375 cells): > 100 µM
IC50 (HDF cells): > 100 µM
IC50 (MCF-7 cells): > 100 µM

melting point: 305 to 307 °C
MIC (S. aureus [2]): 50 mM (≈ 20800 µg/mL)
Structure (SMILES): N#CC1=C(N)Oc2[nH]c(=S)[nH]c(=O)c2C12c1ccccc1-c1c2n[nH]c(=O)c1C#N (centres unmarked) [5c, 7′-Amino-3,4′-dioxo-2′-thioxo-1′,2,2′,3,3′,4′-hexahydrospiro[indeno[2,1-c]pyridazine-9,5′-pyrano[2,3-d]pyrimidine]-4,6′-dicarbonitrile]
Sensitivity of S. aureus to compound (S. aureus [1]): sensitive
Inhibition zone (mm) E. coli (E. coli): —
IC50 (A549 cells): > 100 µM
IC50 (LNCaP cells): > 100 µM
IC50 (PC3 cells): > 100 µM
IC50 (A375 cells): > 100 µM
IC50 (HDF cells): > 100 µM
IC50 (MCF-7 cells): > 100 µM

MIC (S. aureus [2]): 10 mM (≈ 4450 µg/mL)
Structure (SMILES): Cc1nn(-c2ccccc2)c2c1C1(C(C#N)=C(N)O2)c2ccccc2-c2c1n[nH]c(=O)c2C#N (centres unmarked) [5e, 6′-Amino-3′-methyl-3-oxo-1′-phenyl-2,3-dihydro-1′H-spiro[indeno[2,1-c]pyridazine-9,4′-pyrano[2,3-c]pyrazole]-4,5′-dicarbonitrile]
Sensitivity of S. aureus to compound (S. aureus [1]): sensitive
Inhibition zone (mm) E. coli (E. coli): —
IC50 (A549 cells): > 100 µM
IC50 (LNCaP cells): > 100 µM
IC50 (PC3 cells): > 100 µM
IC50 (A375 cells): > 100 µM
IC50 (HDF cells): > 100 µM
IC50 (MCF-7 cells): > 100 µM

MIC (S. aureus [2]): 5 mM (≈ 1850 µg/mL)
Structure (SMILES): Cc1n[nH]c2c1C1(C(C#N)=C(N)O2)c2ccccc2-c2c1n[nH]c(=O)c2C#N (centres unmarked) [5f, 6′-Amino-3′-methyl-3-oxo-2,3-dihydro-1′H-spiro[indeno[2,1-c]pyridazine-9,4′-pyrano[2,3-c]pyrazole]-4,5′-dicarbonitrile]
Sensitivity of S. aureus to compound (S. aureus [1]): sensitive
Inhibition zone (mm) E. coli (E. coli): —
IC50 (A549 cells): > 100 µM
IC50 (LNCaP cells): > 100 µM
IC50 (PC3 cells): > 100 µM
IC50 (A375 cells): > 100 µM
IC50 (HDF cells): > 100 µM
IC50 (MCF-7 cells): > 100 µM
